# Reference: paper PMC7765401, “Antiproliferative and Antiangiogenic Properties of New VEGFR-2-targeting 2-thioxobenzo[g]quinazoline Derivatives (In Vitro)” (Molecules, 2020)
# Several values for one entry are separate records, joined by “and”; a condition that tells them apart may be missing. Equal entries are not always repeated. Where two headings read alike, the source gives them in different places.
# What was measured:
# [1] = target: T1, VEGFR-2 (KDR) (Homo sapiens, UniProt P35968); test: In vitro inhibition of VEGFR-2 (KDR) kinase assay kit; format: biochemical; details: for Fold Relative to Sorafenib: VEGFR-2 IC50 relative to sorafenib; for IC50: luminescence kinase kit, 0.0–10.0 μM range, read-out: IC50 nM, VEGFR-2 enzyme
# T1 construct: purchased Cat. #40325
# T1 sequence (P35968 20-1356): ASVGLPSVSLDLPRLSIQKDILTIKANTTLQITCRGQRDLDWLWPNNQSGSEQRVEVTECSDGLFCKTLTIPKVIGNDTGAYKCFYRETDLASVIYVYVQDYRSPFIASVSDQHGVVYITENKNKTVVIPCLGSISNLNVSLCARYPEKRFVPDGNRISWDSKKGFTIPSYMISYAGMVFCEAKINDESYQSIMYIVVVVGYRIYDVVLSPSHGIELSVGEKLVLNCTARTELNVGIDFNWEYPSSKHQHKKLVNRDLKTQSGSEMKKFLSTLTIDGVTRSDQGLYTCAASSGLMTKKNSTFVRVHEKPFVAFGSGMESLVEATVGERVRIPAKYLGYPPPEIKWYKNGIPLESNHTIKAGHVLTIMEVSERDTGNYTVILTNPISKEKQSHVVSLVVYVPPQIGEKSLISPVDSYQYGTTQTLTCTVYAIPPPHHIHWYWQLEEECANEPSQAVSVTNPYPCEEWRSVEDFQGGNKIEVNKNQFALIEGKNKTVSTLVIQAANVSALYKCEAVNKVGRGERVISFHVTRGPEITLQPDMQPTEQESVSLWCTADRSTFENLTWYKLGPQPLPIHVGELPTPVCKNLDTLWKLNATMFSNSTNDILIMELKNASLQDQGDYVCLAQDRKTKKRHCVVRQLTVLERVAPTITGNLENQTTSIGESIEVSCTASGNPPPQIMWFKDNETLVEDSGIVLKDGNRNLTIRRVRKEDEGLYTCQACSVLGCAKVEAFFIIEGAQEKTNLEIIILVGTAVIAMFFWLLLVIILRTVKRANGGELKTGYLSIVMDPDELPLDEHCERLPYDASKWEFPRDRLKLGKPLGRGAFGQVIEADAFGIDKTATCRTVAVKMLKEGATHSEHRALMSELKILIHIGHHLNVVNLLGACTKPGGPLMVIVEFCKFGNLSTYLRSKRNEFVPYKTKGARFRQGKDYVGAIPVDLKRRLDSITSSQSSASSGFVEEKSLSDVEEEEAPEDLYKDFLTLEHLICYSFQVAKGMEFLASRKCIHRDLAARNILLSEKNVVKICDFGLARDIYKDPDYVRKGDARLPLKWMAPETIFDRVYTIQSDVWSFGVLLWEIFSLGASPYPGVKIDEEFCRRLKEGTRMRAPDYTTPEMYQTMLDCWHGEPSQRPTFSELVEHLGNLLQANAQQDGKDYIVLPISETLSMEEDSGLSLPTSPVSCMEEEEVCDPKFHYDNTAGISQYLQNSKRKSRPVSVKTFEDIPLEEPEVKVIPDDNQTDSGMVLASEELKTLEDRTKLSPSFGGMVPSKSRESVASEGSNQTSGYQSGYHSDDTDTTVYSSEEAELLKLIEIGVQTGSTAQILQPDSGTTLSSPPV
# Protocol: At the indicated end of the experiment, the luminescence was measured by a Tecan spark microplate reader.
# [2] = tested on: MCF-7 cells; test: Cell-cycle analysis by flow cytometry (PI), MCF-7; format: cell-based, human; details: MCF-7, 48 h at the IC50 of the compound
# Protocol: (§1) To investigate whether the tested compounds could arrest HepG2 and MCF-7 mitotic cell division, cell distributions at cell-cycle phases were analyzed by flow cytometry following their treatment with the vehicle or the indicated compound at its IC50 concentration. Cells and samples were prepared as previously reported, and a PI (ab139418) Flow Cytometry Kit (Abcam, Cambridge, UK) was used in accordance with the manufacturer’s protocol. In brief, both HepG2 and MCF-7 cells were separate, plated into six-well plates at a density of 0.6 × 10^6 cells/well in DMEM growth medium supplemented with 10% FBS. Cells were incubated for 24 h at 37 °C and 5% CO2 prior to exposure to either the vehicle (DMSO) as the control or 13, 14, or 15, at their IC50 concentrations. […] All cells were incubated for 48 h, washed with cold PBS after being harvested to single-cell suspensions by trypsinization, and fixed with 70% ethanol. The fixed cells were rehydrated in PBS prior to being lysed in a prepared solution of PI, Triton X-100, and RNase. Finally, the cells were kept at 37 °C for 15 min and analyzed using a FACS Caliber flow cytometer (BD Biosciences and Co., Franklin Lakes, NJ, USA).
# [3] = tested on: MCF-7 cells; test: Apoptosis by annexin-V FITC/PI double staining, MCF-7; format: cell-based, human; details: MCF-7, 48 h at the IC50 of the compound
# Protocol: (§2) Apoptosis was detected for both HepG2 and MCF-7cells using the same preparation and sample treatment conditions as those used for cell-cycle analysis. The manufacturer’s instructions for the annexin-V FITC apoptosis detection kit (K101, Biovision, Milpitas, CA, USA) were followed. In brief, treated cells were detached after 48 h by trypsinization, washed twice with cold PBS, and stained with 5 μL of annexin-V fluorescein isothiocyanate (annexin-V FITC) and 5 μL of PI in the binding buffer for 15 min at 37 °C. Finally, the processed cells were analyzed using a FACS Caliber flow cytometer (BD Biosciences and Co., Franklin Lakes, NJ, USA).
# [4] = tested on: HepG2 human cancer-cell line; test: MTT antiproliferative assay, HepG2; format: cell-based
# Protocol: (§3) Selected compounds were evaluated in vitro for their antiproliferative activities against HepG2 and MCF-7 human cancer-cell lines using MTT assays. Cell viabilities and IC50 values were obtained and compared with those of the control, doxorubicin (Table 1).
# (§4) The antiproliferative activity of the test compounds against HepG2, and MCF-7 human cancer-cell lines were evaluated by MTT assay. The detailed methodology procedure was reported. […]
# [5] = tested on: MCF-7 human cancer-cell line; test: MTT antiproliferative assay, MCF-7; format: cell-based
# Protocol: as §3, §4
# [6] = tested on: HepG2 cells; test: Apoptosis by annexin-V FITC/PI double staining, HepG2; format: cell-based, human; details: HepG2, 48 h at the IC50 of the compound
# Protocol: as §2
# [7] = tested on: HepG2 cells; test: Cell-cycle analysis by flow cytometry (PI), HepG2; format: cell-based, human; details: HepG2, 48 h at the IC50 of the compound
# Protocol: as §1
# [8] = MTT, 48 h of exposure, read-out: IC50 (μM) ± SD HepG2
# [9] = Table S5, read-out: pIC50(exp) HepG2 (converted)
# [10] = MCF7, MTT, 48 h of exposure, read-out: IC50 (μM) ± SD MCF-7
# [11] = MCF7, Table S5, read-out: pIC50 (exp) MCF7 (converted)
SMILES,Fold Relative to Sorafenib [1] [fold],IC50 [1] [nM],Cell Cycle Distribution %G0/G1 [2] [%],Cell Cycle Distribution %G2/M [2],Cell Cycle Distribution %S [2] [%],melting point [°C],Apoptosis Early [3] [%],Apoptosis Late [3] [%],Apoptosis Total [3] [%],Necrosis [3],"IC50 [4, 8] [µM]","IC50 [4, 9] [µM]","IC50 [5, 10] [µM]","IC50 [5, 11] [µM]",Apoptosis Early [6] [%],Apoptosis Late [6] [%],Apoptosis Total [6] [%],Necrosis [6] [%],Cell Cycle Distribution %G0/G1 [7] [%],Cell Cycle Distribution %G2/M [7],other results
"CCn1c(SCc2ccccc2)nc2cc3ccccc3cc2c1=O [Compound 10, 2-(Benzylthio)-3-ethylbenzo[g]quinazolin-4(3H)-one]",4.5,134 ± 8.2,39.28,34.6% and 34.55%,26.17,132 to 134,4.64,17.03,21.67,9.61%,36.2 ± 3.5,36.2,8.8 ± 0.5,8.79,,,,,,,
"CCn1c(SCc2cccc(C#N)c2)nc2cc3ccccc3cc2c1=O [Compound 11, 3-(((3-Ethyl-4-oxo-3,4-dihydrobenzo[g]quinazolin-2-yl)thio)methyl)benzonitrile]",,,,,,140 to 142,,,,,34.2 ± 2.9,34.2,10.6 ± 1.1,10.6,,,,,,,
"CCn1c(SCc2cccc(C)c2)nc2cc3ccccc3cc2c1=O [Compound 12, 3-Ethyl-2-((3-methylbenzyl)thio)benzo[g]quinazolin-4(3H)-one]",,,,,,186 to 188,,,,,30.7 ± 3.1,30.7,11.2 ± 0.9,11.2,,,,,,,
"CCn1c(SCc2cccc(OC)c2)nc2cc3ccccc3cc2c1=O [Compound 13, 3-Ethyl-2-((3-methoxybenzyl)thio)benzo[g]quinazolin-4(3H)-one]",1.5,46.6 ± 2.8,,4.36%,33.25,,7.28,14.94,22.22,15% and 15.31%,27.5 ± 2.1,27.5,10.1 ± 1.1,10.1,2.82,18.56,21.38,5.74,38.22,6.52%,Cell Cycle Distribution %S [7]: 55.3% and 55.26%
"CCn1c(SCCN2CCCCC2)nc2cc3ccccc3cc2c1=O [Compound 14, 3-Ethyl-2-((2-(piperidin-1-yl)ethyl)thio)benzo[g]quinazolin-4(3H)-one]",2.0,63 ± 3.9,66.24,6.58%,27.18,190 to 192,5.08,25.68,30.76,11.75%,27.7 ± 2.5,27.7,9.6 ± 0.5,9.6,2.97,13.42,16.39,6.33,38.66,9.03%,Cell Cycle Distribution %S [7]: 52.3% and 52.31%
"CCn1c(SCCCN2C(=O)c3ccccc3C2=O)nc2cc3ccccc3cc2c1=O [Compound 15, 2-(3-((3-Ethyl-4-oxo-3,4-dihydrobenzo[g]quinazolin-2-yl)thio)propyl)isoindoline-1,3-dione]",1.4,44.4 ± 2.6,43.25,28.0% and 28.03%,28.72,,5.57,19.73,25.3,8.14%,26 ± 2.5,28,9.4 ± 0.7,9.4,3.44,14.4,17.84,6.27,31.15,39.2% and 39.24%,Cell Cycle Distribution %S [7]: 29.61%
